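These data come from cells grown in 96-well plates and exposed to compound for 48 hours at five concentrations. At the GI50, growth is halved. Definition used: TGI = concentration required for complete inhibition of growth.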
Legend:
Assay in all cases: growth of human tumour cells (NCI), 48 h
CCRF-CEM leukemia = system: CCRF-CEM leukemia
COLO 205 colon = system: COLO 205 colon
HL-60(TB) leukemia = system: HL-60(TB) leukemia
HS 578T breast = system: HS 578T breast
IGROV1 ovarian = system: IGROV1 ovarian
NCI/ADR-RES ovarian = system: NCI/ADR-RES ovarian
SK-OV-3 ovarian = system: SK-OV-3 ovarian
UACC-257 melanoma = system: UACC-257 melanoma
UO-31 renal = system: UO-31 renal
NCI-H226 lung = system: NCI-H226 lung

SMILES | TGI (CCRF-CEM leukemia) [µM] | TGI (COLO 205 colon) [µM] | TGI (HL-60(TB) leukemia) [µM] | TGI (HS 578T breast) [µM] | TGI (IGROV1 ovarian) [µM] | TGI (NCI/ADR-RES ovarian) [µM] | TGI (SK-OV-3 ovarian) [µM] | TGI (UACC-257 melanoma) [µM] | TGI (UO-31 renal) [µM] | GI50 (CCRF-CEM leukemia) [µM] | GI50 (COLO 205 colon) [µM] | GI50 (HL-60(TB) leukemia) [µM] | GI50 (HS 578T breast) [µM] | GI50 (IGROV1 ovarian) [µM] | GI50 (NCI-H226 lung) [µM] | TGI (NCI-H226 lung) [µM] | GI50 (NCI/ADR-RES ovarian) [µM] | GI50 (SK-OV-3 ovarian) [µM] | GI50 (UACC-257 melanoma) [µM] | GI50 (UO-31 renal) [µM]
CC(C)OC(=O)NNc1cc(Cl)ccc1Cl | > 100 | > 100 | > 100 | > 100 | > 100 | > 100 | > 100 | > 100 | > 100 | – | – | – | – | – | – | – | – | – | – | –
O=C(Nc1ccc(Br)cc1)c1ccc(Cl)c(Cl)c1 | > 100 | 3.7 | 7.37 | > 100 | > 100 | > 100 | > 100 | > 89.2 | > 100 | 4.81 | 1.81 | 2.14 | 3.8 | 2.85 | 2.86 | > 100 | 3.24 | 3.17 | 3.69 | 2.31
COc1ccc(Nc2c3ccccc3nc3occ(Cl)c23)cc1 | 0.416 | 4.89 | 0.547 | 61.3 | > 77.2 | 2.09 | – | 13.3 | 26.9 | 0.0199 | < 0.01 | < 0.01 | 0.0237 | 0.0634 | 25.1 | > 100 | < 0.01 | 0.765 | 0.0159 | 0.346
Cc1cn2c(/C=C3\C(=O)N(C)c4ccc(O)cc43)c(C)nc2s1 | > 100 | 27.5 | 6.1 | 40.8 | 28.7 | > 100 | 43.2 | > 100 | > 100 | 6 | 4.29 | 2.15 | 5.64 | 4.26 | 52.1 | > 100 | 8.27 | 7.52 | > 100 | 9.03
O=C(Nc1ccc(CO)cc1)c1coc2ccccc2c1=O | > 100 | > 100 | > 100 | 78.1 | > 100 | > 100 | > 100 | > 100 | > 100 | > 100 | > 100 | > 100 | 16.2 | > 100 | > 100 | > 100 | > 100 | > 100 | > 100 | > 100
NC(N)=NCCCCCNc1noc(Cc2c[nH]c3cc(Br)ccc23)n1 | 39.5 | 28.2 | 28.8 | 90.2 | 19.4 | > 100 | > 100 | 80.3 | > 100 | 13.9 | 9.77 | 7.21 | 9.08 | 4.55 | 13.6 | 46.9 | 40.4 | 24 | 14.6 | 20.2
Cc1cc2c(cc1Cl)SC(=Nc1ccc(Cl)cc1)N(S(=O)(=O)c1ccccc1)S2(=O)=O | 27.4 | > 100 | 32.7 | 45.9 | 31.7 | 19.3 | 44.4 | 34.9 | 32.7 | 4.92 | 2.89 | 11.7 | 20.7 | 2.55 | 11.5 | 35.4 | 5.25 | 12 | 17.4 | 13.5
COc1ccc2ncn(-c3cc(O[C@H](C)c4ccccc4Cl)c(C(N)=O)s3)c2c1 | 6.35 | 0.436 | 2.81 | 1.26 | > 25 | 2.88 | > 25 | > 22.7 | 17 | 0.00861 | 0.00953 | 0.00849 | 0.0763 | 0.0284 | 0.6 | 12.7 | 0.0107 | 0.0246 | 0.444 | 1.41
Cc1c(C2=C(Br)C(=O)N(C)C2=O)c(=O)n(C)c(=O)n1C | 48 | 34.5 | 41 | > 100 | 36.5 | 74.1 | > 100 | 32 | 33.3 | – | – | – | – | – | – | > 100 | – | – | – | –
O=C(Nc1ccc(-c2ccccc2)cc1)C1CCN(S(=O)(=O)c2ccccc2Cl)CC1 | > 100 | > 100 | > 100 | 71.4 | > 100 | > 100 | > 100 | > 100 | > 100 | 74.2 | > 100 | > 100 | 12.6 | 21.4 | 30.2 | > 100 | 37.1 | 57.4 | 28.1 | 66.2
CC1CCC(=O)C(C(=O)CC2CC(=O)NC(=O)C2)C1 (stereo not given) | > 100 | > 100 | > 100 | > 100 | > 100 | > 100 | > 100 | > 100 | > 100 | – | – | – | – | – | – | > 100 | – | – | – | –
C=C1C(=O)O[C@H]2[C@H]1CC/C(COC(=O)c1ccc(Cl)nc1)=C\CC[C@@]1(C)O[C@@H]21 | 6.9 | 3.96 | 4.72 | 36.2 | 6.2 | 23.9 | 28.5 | 4.17 | 2.96 | 1.22 | 1.74 | 1.57 | 4.56 | 1.43 | 2.66 | 6.78 | 5.03 | 14.8 | 1.83 | 1.37
Cn1cc(C2=C(c3cn(CCCCCN)c4ccccc34)C(=O)NC2=O)c2ccccc21 | > 20.6 | > 21 | 13.4 | > 25 | > 25 | > 25 | > 25 | > 25 | > 25 | 5.58 | 6.06 | 6.07 | 11.5 | 14.7 | > 25 | > 25 | 12.8 | 10.9 | 23.1 | 5.52
CCOC(=O)CNC(=O)c1ccccc1Nc1ccnc(C(F)(F)F)c1 | > 37.9 | > 67.2 | > 100 | > 100 | > 65.7 | > 100 | > 100 | > 100 | > 59.5 | 7.97 | 17.8 | 33.2 | 45.5 | 32.2 | > 100 | > 100 | > 71.5 | > 59.5 | 68.7 | 24.4
COc1cc2ncn(-c3cc(OCCc4ccccc4)c(C(N)=O)s3)c2cc1OC | > 25 | > 25 | > 25 | > 25 | > 25 | > 25 | > 25 | > 25 | > 25 | 8.5 | 24.4 | > 20.2 | > 16.1 | > 25 | > 25 | > 25 | 14.8 | > 25 | > 25 | 8.16
C=CCSS/C=C/CS(=O)CC=C (stereo not given) | > 100 | 66.5 | > 100 | > 77.4 | > 100 | 74.5 | > 100 | > 100 | > 100 | – | – | – | – | – | – | > 100 | – | – | – | –
Cc1cc(N/N=C/c2nc(-c3ccc(Br)cc3)oc2C)c2cc(Br)ccc2n1 | 29.7 | 22.1 | 6.28 | 26.2 | 20.2 | 9.03 | 30.2 | 21.9 | 26.8 | 2 | 4.38 | 2.24 | 4.21 | 4.55 | 17.9 | 48.5 | 2.71 | 16.6 | 6.9 | 13.9
Nc1nc(SN=Nc2ccc(S(N)(=O)=O)cc2)c2[nH]cnc2n1 | > 100 | 3.6 | > 53.6 | > 50.2 | > 100 | > 100 | 13.6 | > 100 | > 100 | 0.268 | 1.42 | 2.18 | 1.81 | 1.65 | 0.867 | > 100 | 0.455 | 0.39 | 1.62 | 0.455
CCc1ccccc1NC(=O)c1sc2nc3c(cc2c1N)C(=O)CCC3 | > 100 | 1.06 | 43.7 | > 100 | > 100 | 41.1 | 75.7 | > 100 | > 100 | 0.352 | 0.291 | 0.326 | 0.398 | 15.5 | 23.2 | > 100 | 0.433 | 0.537 | 27.6 | 14.8
[Au+].[Au+].[Au+].[c-]1nccn1Cc1ccccc1.[c-]1nccn1Cc1ccccc1.[c-]1nccn1Cc1ccccc1 | > 25.5 | 3.16 | 16 | 64 | 7.92 | > 100 | 36.8 | 7.5 | 28.4 | 3.71 | 1.74 | 3.16 | 19.8 | 3.48 | 14.6 | 71.4 | 58 | 19.4 | 3.71 | 15
COc1ccc(-c2c[nH]c(=S)n2-c2ccc(OC)cc2)cc1 | – | > 50 | > 50 | > 50 | > 50 | > 50 | – | > 50 | > 50 | – | > 50 | > 50 | > 50 | > 50 | > 50 | > 50 | > 50 | – | > 50 | > 50
CCC(C)(C)c1ccc(OCCCCCCN2CCNCC2)cc1 | 4.64 | 3.51 | 3.65 | 5.17 | 7.29 | 8.95 | 25.7 | 4.43 | 4.8 | 1.43 | 1.77 | 1.76 | 1.97 | 2.63 | 3.87 | 18 | 3.11 | 11.3 | 2.11 | 1.93
Cc1cc[c-]cc1.Fc1c[c-]c(-c2ccccn2)c(F)c1.[Pt+2].c1ccc(P(C[PH+](c2ccccc2)c2ccccc2)c2ccccc2)cc1 | – | 3.76 | 6.88 | 9.94 | 12.2 | 48.2 | 7.79 | 8.15 | 7.53 | – | 1.84 | 2.36 | 2.61 | 2.11 | 2.93 | 11.6 | 13.9 | 2.77 | 2.37 | 2.13
CN(CCCNC(=O)Cc1ccc2ccc3cccc4ccc1c2c34)CCCNc1cc(-c2ccc3ccccc3c2)nc2ccccc12 | – | 2.83 | 2.43 | 3.59 | 3.58 | 2.96 | 3.06 | 3.56 | 3.15 | – | 1.42 | 1.1 | 1.66 | 1.7 | 1.83 | 3.83 | 1.49 | 1.64 | 1.8 | 1.4
CCCCC1(CN2CCOCC2)S/C(=N/c2nc(CC(=O)OCC)cs2)NC1=O (stereo not given) | – | > 100 | 62.5 | > 100 | > 100 | > 100 | > 100 | > 100 | > 100 | – | 30.1 | 30.2 | 35.8 | 55.3 | 38.6 | > 100 | 40.1 | 25.9 | 40.4 | 33
COc1ccc(C(=O)COc2cccc(/C=C3\Oc4ccc5ccccc5c4C3=O)c2)cc1 | 1.44 | 6.94 | 18.7 | 25.8 | – | 33.2 | – | 32.4 | 23.2 | 0.327 | 2.45 | 3.19 | 5.39 | – | 6.58 | 22.4 | 16.7 | – | 14.5 | 6.42
Oc1cn(-c2ccc(Cl)cc2)nc1-c1n[nH]c(=S)n1C1CCCCC1 | > 100 | > 100 | – | – | > 100 | 1.05 | > 44.5 | > 100 | > 100 | 0.252 | 64.8 | – | 0.28 | 24.2 | 59.8 | > 100 | – | 0.451 | 0.873 | 17
